Laboratory results taken from patent EP0700301B1, “PEPTIDES AND COMPOUNDS THAT BIND TO ELAM-1” (AFFYMAX TECHNOLOGIES N.V., priority 1993, dated 1994).
Ends that are not written are not given here.

Molecular target: T1, immobilized ELAM-1 (Homo sapiens, UniProt P16581)
T1 construct: truncated form comprising the complete extracellular domain (amino acids 1 through 554); made in house; released with phospholipase C
T1 sequence (P16581 22-554): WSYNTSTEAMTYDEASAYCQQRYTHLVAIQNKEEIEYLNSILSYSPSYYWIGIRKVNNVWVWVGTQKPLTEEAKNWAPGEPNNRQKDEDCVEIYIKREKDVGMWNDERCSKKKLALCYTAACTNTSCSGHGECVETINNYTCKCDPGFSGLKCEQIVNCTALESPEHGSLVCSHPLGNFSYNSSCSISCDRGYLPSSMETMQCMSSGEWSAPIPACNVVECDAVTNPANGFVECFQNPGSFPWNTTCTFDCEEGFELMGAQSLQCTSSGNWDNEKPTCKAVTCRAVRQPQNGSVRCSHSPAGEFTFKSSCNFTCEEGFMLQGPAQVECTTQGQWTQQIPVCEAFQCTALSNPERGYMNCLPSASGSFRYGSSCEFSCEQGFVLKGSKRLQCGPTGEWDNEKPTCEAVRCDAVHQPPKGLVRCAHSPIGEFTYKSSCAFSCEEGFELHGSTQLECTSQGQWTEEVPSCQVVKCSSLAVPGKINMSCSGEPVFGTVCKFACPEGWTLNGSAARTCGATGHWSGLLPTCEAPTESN
Experiment: cell-based
Format: cell-based
Protocol: By comparing test wells with control wells (no receptor), one can determine whether a peptide binds to ELAM-1 specifically. Peptides found to bind specifically to ELAM-1 were then synthesized as the free peptide (no phage) and tested in an HL60 cell adhesion competition assay. The competition assay was carried out similarly to the ELISA, except that labeled HL60 cells were added in addition to the peptide (the control wells were typically of at least two types: (1) no immobilized ELAM-1; and (2) no peptide; see the Examples). Peptides that block the binding of labeled HL60 cells ELAM-1 are preferred compounds of the invention. […] The assay requires HL60 cells labeled with tritiated thymidine. To label the cells, about 10 million HL60 cells are collected by centrifugation (2500 RPM for 3 minutes) and resuspended in 15 mL of DMEM/F12 plus 5% fetal calf serum containing 2 μCi/mL of tritiated thymidine (Amersham). The cells are then placed in a T75 flask and incubated at 37°C for 24 hours. The cells are then collected by centrifugation, washed twice with RPMI/HEPES/0.1% FCS, and resuspended in the same solution at a concentration of about one to two million cells per mL. […] After this incubation, aliquots were removed from each well and placed in scintillation vials; scintillation fluid was added to each vial; and the radioactivity in each aliquot was quantitated by LS counting. […]

blocking of HL60 cell binding that occurred in the absence of added compound (200000.0): over 80%
inhibition at 50 µM (HL-60, at a concentration of 50 µM, tested from 0.5 to 100 µM, Figure 2, read-out: inhibition of binding of HL60 cells): ~50%
Sequence: HITWDQLWNVMN
